{"source": "paper PMC10294390", "about": "(BMC Complementary Medicine and Therapies, 2023)", "key": {"[1]": {"tested_on": "SW1116 cells", "experiment": "Annexin V-FITC/PI double staining, flow cytometry", "assay_type": "cell-based, human", "protocol": "(§1) The levels of cell surface phosphatidylserine were determined to monitor the type of cell death and the kinetics of apoptosis. The CRC cell lines SW1116 and SW837 were seeded (2.5 × 10^5 cells/well) into 24-well plates and incubated in a non-CO2 incubator at 37 °C for 18 h. […] The cells were subsequently washed twice with HBSS and harvested using trypsin. Finally, the cells were double-stained using the Annexin V-FITC-Flous staining kit, according to the manufacturer’s instructions (Roche Diagnostic GmbH). Annexin V-Flous labelling solution containing Annexin V-FITC and PI (100 µl) was added to both the treated and control cell groups and incubated at 15–20 °C for 15 min. The cells (1 × 10^6 cells/ml) were then resuspended in binding buffer, and fluorescence was monitored using flow cytometry (FC500; Beckman Coulter, Inc.)."}, "[2]": {"tested_on": "SW837 cells", "experiment": "Annexin V-FITC/PI double staining, flow cytometry", "assay_type": "cell-based, human", "protocol": "as §1"}, "[3]": {"conditions": "clinical treatment with Sora, cited from earlier work"}, "[4]": {"tested_on": "SW1116 cells", "experiment": "Cell cycle analysis by flow cytometry (PI)", "assay_type": "cell-based, human", "conditions": "Sora 5 µM, 72 h", "protocol": "(§2) The cells were subsequently processed using a DNA-prep kit and DNA-Prep EPICS workstation. The cells were treated with a non-ionic detergent to permeabilize the cell membrane, followed by propidium iodide (PI) and RNase, and incubated at 15–20 °C for 15 min. The cells were resuspended in binding buffer at a concentration of 3–10 × 10^6 cells/ml for optimal staining. Fluorescence was measured using a flow cytometer (Beckman Coulter, Inc.), and the percentage of cells in the different phases of the cell cycle was calculated using the Phoenix statistical software package, Advanced DNA cell cycle software (Phoenix Flow System)."}, "[5]": {"tested_on": "SW837 cells", "experiment": "Cell cycle analysis by flow cytometry (PI)", "assay_type": "cell-based, human", "conditions": "Sora 5 µM, 72 h", "protocol": "as §2"}, "[6]": {"tested_on": "DLD-1 colon tumor model", "parameters": "method as in PMID 14692718", "conditions": "cited from earlier work"}, "[7]": {"tested_on": "SW1116 cells", "experiment": "DNA fragmentation assay", "assay_type": "cell-based, human", "conditions": "Sora 5 µM, PPC 200 and 400 µM, simultaneous combinations, 72 h, Fig. 8A, C", "protocol": "(§3) Induction of apoptosis was monitored using a DNA fragmentation assay following the manufacturer’s instructions (Apoptotic DNA Ladder Detection kit; Abcam). […] Cells were subsequently incubated at 37 °C for 72 h. The cells were then trypsinized, harvested, washed, pelleted, and lysed using Tris–EDTA (TE) lysis buffer (35 µl). Enzyme A solution (RNase; 5 µl) was added, followed by incubation at 37 °C for 10 min. Enzyme B solution (proteinase; 5 µl) was then added, followed by incubation at 50 °C for 30 min. Ammonium acetate solution (5 µl) and isopropanol (50 µl) were added to each sample and incubated at -20 °C for 10 min. Finally, the DNA was pelleted, washed with 0.5 ml 70% methanol, and dissolved in 30 µl DNA suspension buffer. The extracted DNA samples were loaded onto a 1.2% agarose gel, along with a loading marker (1 kb DNA ladder), and subjected to electrophoresis, using a running buffer containing 1.35 µg/ml ethidium bromide at 5 V/cm for 1 h. Ethidium bromide-stained DNA bands were visualized using transillumination with UV light."}, "[8]": {"tested_on": "SW837 cells", "experiment": "DNA fragmentation assay", "assay_type": "cell-based, human", "conditions": "Sora 5 µM, PPC 200 and 400 µM, sequential combinations, 72 h, Fig. 8B, D", "protocol": "as §3"}, "[9]": {"tested_on": "SW837 human rectum cancer cell line", "experiment": "MTT assay, single and schedule-dependent combined treatment", "assay_type": "cell-based", "conditions": "Sora 0.25-10 µM alone"}, "[10]": {"tested_on": "SW837 human rectum cancer cell line", "experiment": "MTT assay, single and schedule-dependent combined treatment", "assay_type": "cell-based", "conditions": "Sora 0.25-10 µM alone; for IC50: Homo sapiens, SW837, SW837, read-out: IC-values (µM): IC50", "protocol": "(§4) The plates were washed, and PPCs [Cur, Kmf, or Que (60 or 120 µM), or Rsv (40 or 80 µM)] were added, followed by incubation at 37 °C for 48 h. For inverted sequential treatment, PPC [Cur, Kmf, or Que (60 or 120 µM), or Rsv (40 or 80 µM)] was added and incubated at 37 °C for 24 h. […] Cell growth was monitored as previously described."}, "[11]": {"tested_on": "SW1116 human colon cancer cell line", "experiment": "MTT assay, single and schedule-dependent combined treatment", "assay_type": "cell-based", "conditions": "Sora 0.25-10 µM alone; for IC80: Homo sapiens, SW 1116, 72 h, read-out: IC-values (µM): IC80", "protocol": "as §4"}, "[12]": {"conditions": "arm a of simultaneous Sora and Cur 72 h"}, "[13]": {"conditions": "arm a of simultaneous Sora and Kmf 72 h"}, "[14]": {"conditions": "arm a of inverted sequential: Que 24 h followed by Sora 48 h"}, "[15]": {"conditions": "arm a of inverted sequential: Rsv 24 h followed by Sora 48 h"}, "[16]": {"conditions": "arm a of sequential: Sora 24 h followed by Que 48 h"}, "[17]": {"conditions": "arm a of sequential: Sora 24 h followed by Rsv 48 h"}}, "note": "Like-named read-outs stand apart in the source and are kept apart here.", "data": [{"compound": "CNC(=O)c1cc(Oc2ccc(NC(=O)Nc3ccc(Cl)c(C(F)(F)F)c3)cc2)ccn1", "note": "[Sora, sorafenib]", "values": [{"measurement": "viability at 5 µM", "setting": "[1]; Homo sapiens, SW 1116, 72 h, read-out: B3, percentage of viable cells", "value": 14.1, "unit": "%"}, {"measurement": "B1, percentage of necrotic cells", "setting": "[1]; SW1116, Sora 5 µM, 72 h", "value": 13.6, "unit": "%"}, {"measurement": "B2, percentage of late apoptotic cells", "setting": "[1]; SW1116, Sora 5 µM, 72 h", "value": 37.3, "unit": "%"}, {"measurement": "B4, percentage of early apoptotic cells", "setting": "[1]; SW1116, Sora 5 µM, 72 h", "value": 35, "unit": "%"}, {"measurement": "viability at 5 µM", "setting": "[2]; Homo sapiens, SW837, 72 h, read-out: B3, percentage of viable cells", "value": 52.4, "unit": "%"}, {"measurement": "B1, percentage of necrotic cells", "setting": "[2]; SW837, Sora 5 µM, 72 h", "value": 9.6, "unit": "%"}, {"measurement": "B2, percentage of late apoptotic cells", "setting": "[2]; SW837, Sora 5 µM, 72 h", "value": 33.6, "unit": "%"}, {"measurement": "B4, percentage of early apoptotic cells", "setting": "[2]; SW837, Sora 5 µM, 72 h", "value": 4.7, "unit": "%"}, {"measurement": "patients in whom side effects demand a dose reduction", "setting": "[3]", "value": "> 60", "unit": "%"}, {"measurement": "patients with inhibition of treatment due to side effects", "setting": "[3]", "value": "6–25%"}, {"measurement": "patients developing toxic side effects", "setting": "[3]; hand-foot syndrome, diarrhoea, fatigue, rash, weight loss", "value": "up to 80%"}, {"measurement": "%G0/G1 (cells in G0/G1 phase)", "setting": "[4]", "value": 38.0, "unit": "%"}, {"measurement": "%G2/M (cells in G2/M phase)", "setting": "[4]", "value": 0.0, "unit": "%"}, {"measurement": "%S (cells in S phase)", "setting": "[4]", "value": 61.0, "unit": "%"}, {"measurement": "%SubG1 (cells in sub G1)", "setting": "[4]", "value": 8.4, "unit": "%"}, {"measurement": "%G0/G1 (cells in G0/G1 phase)", "setting": "[5]", "value": 52.0, "unit": "%"}, {"measurement": "%G2/M (cells in G2/M phase)", "setting": "[5]", "value": 12.9, "unit": "%"}, {"measurement": "%S (cells in S phase)", "setting": "[5]", "value": 34.9, "unit": "%"}, {"measurement": "%SubG1 (cells in sub G1)", "setting": "[5]", "value": 1.4, "unit": "%"}, {"measurement": "delay of tumor cell growth", "setting": "[6]", "value": 100, "unit": "%"}, {"measurement": "induction of apoptosis as indicated by DNA fragmentation", "setting": "[7]", "value": "marked induction of apoptosis"}, {"measurement": "DNA fragmentation", "setting": "[8]", "value": "increased levels of DNA fragmentation"}, {"measurement": "IC50", "setting": "[9]; Homo sapiens, SW837, 72 h, arm a of simultaneous Sora and Que 72 h, read-out: IC-values (µM): IC50", "value": 6.57, "unit": "µM"}, {"measurement": "IC-values (µM): IC60", "setting": "[9]; [12]", "value": "IC60 = 7.43 µM"}, {"measurement": "IC-values (µM): IC60", "setting": "[9]; [13]", "value": "IC60 = 7.14 µM"}, {"measurement": "IC-values (µM): IC60", "setting": "[9]; arm a of simultaneous Sora and Rsv 72 h", "value": "IC60 = 7.71 µM"}, {"measurement": "IC50", "setting": "[10]; [14]", "value": 6.86, "unit": "µM"}, {"measurement": "IC50", "setting": "[10]; [15]", "value": 6.57, "unit": "µM"}, {"measurement": "IC50", "setting": "[10]; [16]", "value": 6.86, "unit": "µM"}, {"measurement": "IC50", "setting": "[10]; [17]", "value": 6.86, "unit": "µM"}, {"measurement": "IC-values (µM): IC60", "setting": "[10]; SW837, arm a of inverted sequential: Cur 24 h followed by Sora 48 h", "value": "IC60 = 8.00 µM"}, {"measurement": "IC-values (µM): IC60", "setting": "[10]; SW837, arm a of inverted sequential: Kmf 24 h followed by Sora 48 h", "value": "IC60 = 7.43 µM"}, {"measurement": "IC-values (µM): IC70", "setting": "[10]; SW837, arm a of sequential: Sora 24 h followed by Cur 48 h", "value": "IC70 = 0.86 µM"}, {"measurement": "IC-values (µM): IC60", "setting": "[10]; SW837, arm a of sequential: Sora 24 h followed by Kmf 48 h", "value": "IC60 = 7.43 µM"}, {"measurement": "IC80", "setting": "[11]; [12]", "value": 4.86, "unit": "µM"}, {"measurement": "IC80", "setting": "[11]; [13]", "value": 4.86, "unit": "µM"}, {"measurement": "IC80", "setting": "[11]; arm a of simultaneous Sora and Que 72 h", "value": 4, "unit": "µM"}, {"measurement": "IC-values (µM): IC70", "setting": "[11]; arm a of inverted sequential: Cur 24 h followed by Sora 48 h", "value": "IC70 = 6.00 µM"}, {"measurement": "IC-values (µM): IC60", "setting": "[11]; arm a of inverted sequential: Kmf 24 h followed by Sora 48 h", "value": "IC60 = 4.86 µM"}, {"measurement": "IC-values (µM): IC60", "setting": "[11]; [14]", "value": "IC60 = 4.86 µM"}, {"measurement": "IC-values (µM): IC60", "setting": "[11]; [15]", "value": "IC60 = 4.86 µM"}, {"measurement": "IC-values (µM): IC60", "setting": "[11]; arm a of sequential: Sora 24 h followed by Cur 48 h", "value": "IC60 = 7.70 µM"}, {"measurement": "IC-values (µM): IC60", "setting": "[11]; arm a of sequential: Sora 24 h followed by Kmf 48 h", "value": "IC60 = 0.57 µM"}, {"measurement": "IC-values (µM): IC60", "setting": "[11]; [16]", "value": "IC60 = 0.57 µM"}, {"measurement": "IC-values (µM): IC60", "setting": "[11]; [17]", "value": "IC60 = 0.57 µM"}]}]}
